Experimental data reported in ChEMBL document CHEMBL1158352, “Development of CoMFA and CoMSIA models of cytotoxicity data of anti-HIV-1-phenylamino-1H-imidazole derivatives” (Eur J Med Chem, 2009).

test: Cytotoxicity against human MT4 cells; format: cell-based

SMILES	CC50 [µM]
Cc1cccc(Nn2cnc(C)c2C)c1	312
Clc1cccc(Nn2cnc3c2CCCC3)c1	67.3
Cc1cccc(Nn2c(-c3ccccc3)c(C)[nH]c2=S)c1	88.3
Cc1nc(S)n(Nc2cccc(Cl)c2)c1-c1cccc(C#N)c1	99.3
Sc1nc(-c2ccccc2)c(-c2ccccc2)n1Nc1cccc(Cl)c1	36.3
Cc1cccc(Nn2c(-c3ccccc3)c(C(C)C)[nH]c2=S)c1	42.7
Cc1ncn(Nc2cccc(Cl)c2)c1C	214
COC(=O)c1c(C)nc(S)n1Nc1cccc(Cl)c1	190
COc1cccc(Nn2c(S)nc(C)c2-c2ccccc2)c1	38
Cc1cccc(Nn2cnc(C)c2-c2cccc(C#N)c2)c1	44.7
COC(=O)c1nc(S)n(Nc2cccc(Cl)c2)c1C	48.8
Cc1ncn(Nc2ccccc2)c1C	352
Cc1ncn(Nc2ccc(F)cc2)c1-c1ccccc1	30.8
Cc1cc(C)cc(Nn2cnc(C)c2-c2ccccc2)c1	20.4
Cc1[nH]c(=S)n(Nc2cccc(Cl)c2)c1-c1ccc(Cl)cc1	40.8
Cc1[nH]c(=S)n(Nc2cccc(Br)c2)c1-c1ccccc1	44.3
CSc1ccc(Nn2c(S)nc(C)c2-c2ccccc2)cc1	53.1
Cc1ncn(Nc2cccc(Cl)c2)c1-c1cccc(Cl)c1	11.9
Cc1[nH]c(=S)n(Nc2cccc(Cl)c2)c1-c1cccc(Br)c1	44
Cc1[nH]c(=S)n(Nc2cccc(Cl)c2)c1-c1cccc(Cl)c1	31

SMILES	CC50 [µM]
CCc1[nH]c(=S)n(Nc2cccc(C)c2)c1-c1ccccc1	53.6
Cc1nc(S)n(Nc2ccccc2)c1C	181
Cc1nc(S)n(Nc2cccc3ccccc23)c1-c1ccccc1	12
COC(=O)c1c(C)ncn1Nc1cccc(Cl)c1	107
COC(=O)c1cccc(-c2c(C)ncn2Nc2cccc(Cl)c2)c1	33.1
Cc1nc(S)n(Nc2cc(Cl)ccc2Cl)c1-c1ccccc1	147
Cc1cccc(Nn2c(S)nc(C)c2-c2cccc(C#N)c2)c1	45.6
Cc1ncn(Nc2cccc(Cl)c2)c1-c1cccc(Br)c1	16.4
CCc1ncn(Nc2cccc(C)c2)c1-c1ccccc1	27.9
Cc1cccc(Nn2c(S)nc(C)c2-c2cccc(C(=O)O)c2)c1	187
Cc1cccc(Nn2cnc(C)c2-c2cccc(N)c2)c1	163
Sc1nc2c(n1Nc1cccc(Cl)c1)CCCC2	126
Cc1ccc(Nn2c(-c3ccccc3)c(C)[nH]c2=S)cc1C	55.6
Cc1nc(S)n(Nc2cccc(Cl)c2)c1C	259
COc1ccc(-c2c(C)[nH]c(=S)n2Nc2cccc(Cl)c2)cc1	38.7
Cc1[nH]c(=S)n(Nc2cccc(F)c2)c1-c1ccccc1	109
Cc1ccc(Nn2c(-c3ccccc3)c(C)[nH]c2=S)cc1Cl	44.3
Cc1[nH]c(=S)n(Nc2ccc(Cl)cc2)c1-c1ccccc1	135
Cc1cccc(Nn2cnc(C)c2-c2ccccc2)c1	27
Cc1[nH]c(=S)n(Nc2ccccc2)c1-c1ccccc1	191

SMILES	CC50 [µM]
COC(=O)c1cccc(-c2c(C)nc(S)n2Nc2cccc(Cl)c2)c1	67.3
Cc1nc(S)n(Nc2cccc(Cl)c2)c1-c1cccc(C(=O)O)c1	120
Cc1ncn(Nc2cccc(Cl)c2)c1-c1cccc(N)c1	261
Cc1c(-c2ccccc2)nc(S)n1Nc1cccc(Cl)c1	50
Cc1[nH]c(=S)n(Nc2ccccc2Cl)c1-c1ccccc1	162
CCc1ccc(Nn2c(S)nc(C)c2-c2ccccc2)cc1	34.4
Cc1[nH]c(=S)n(Nc2ccc(F)cc2)c1-c1ccccc1	220
Cc1nc(S)n(Nc2cccc(Cl)c2)c1-c1ccc(Br)cc1	33.2
Cc1[nH]c(=S)n(Nc2cccc(Cl)c2)c1-c1ccccc1	66.7
Cc1ncn(Nc2cccc(Cl)c2)c1-c1ccccc1	17.5
Cc1ncn(Nc2cccc(Cl)c2)c1-c1cccc(C#N)c1	36.8
Cc1cccc(Nn2c(S)nc(C)c2C)c1	360
Cc1[nH]c(=S)n(Nc2cccc([N+](=O)[O-])c2)c1-c1ccccc1	48.3
Cc1cc(C)cc(Nn2c(-c3ccccc3)c(C)[nH]c2=S)c1	194
Cc1ncn(Nc2ccccc2)c1-c1ccccc1	52.1
COc1cccc(Nn2cnc(C)c2-c2ccccc2)c1	34.4
Cc1nc(S)n(Nc2cccc(Cl)c2)c1-c1cccc(N)c1	42.2
CCc1[nH]c(=S)n(Nc2cccc(Cl)c2)c1-c1ccccc1	39
Cc1nc(S)n(Nc2cccc(Cl)c2)c1C(=O)O	265
Cc1ncn(Nc2cccc(Cl)c2)c1-c1cccc(C(=O)O)c1	161
